One test has as its target T1, 5-HT2A receptor (Homo sapiens, UniProt P28223).
T1 construct: host or cells: unnamed cell lines
Put plainly: Calcium mobilization assay, agonist format, 5-HT2A receptor. It is filed as cell-based. The settings on record: agonist mode, % activity relative to MAX control ligand (5-HT positive control), read-out: 5-HT2A agonist efficacy @ 1 μM. As for the experimental part: (§1) • Protocol: in vitro testing at select 5-hydroxytryptamine (5-HT; serotonin) receptors was conducted.
(§2) Assay Design: Calcium Mobilization
(§3) • 1. Cell lines were expanded from freezer stocks according to standard procedures. • 2. Cells were seeded in a total volume of 20 μL into black-walled, clear-bottom, Poly-D-lysine coated 384-well microplates and incubated at 37° C. for the appropriate time prior to testing.
(§4) • 1. Assays were performed in 1×Dye Loading Buffer consisting of 1× Dye, 1× Additive A and 2.5 mM Probenecid in HBSS/20 mM Hepes. Probenicid was prepared fresh. • 2. Cells were loaded with dye prior to testing. Media was aspirated from cells and replaced with 20 μL Dye Loading Buffer. • 3. Cells were incubated for 30-60 minutes at 37° C.
(§5) • 1. For agonist determination, cells were incubated with sample to induce response. • 2. After dye loading, cells were removed from the incubator and 10 μL HBSS/20 mM Hepes was added. 3× vehicle was included in the buffer when performing agonist dose curves to define the EC80 for subsequent antagonist assays. Cells were incubated for 30 minutes at room temperature in the dark to equilibrate plate temperature. • 3. Intermediate dilution of sample stocks was performed to generate 4× sample in assay buffer. • 4. Compound agonist activity was measured on a FLIPR Tetra (MDS). Calcium mobilization was monitored for 2 minutes and 10 μL 4× sample in HBSS/20 mM Hepes was added to the cells 5 seconds into the assay.
(§6) • 1. Compound activity was analyzed using CBIS data analysis suite (ChemInnovation, CA). • 2. For agonist mode assays, percentage activity is calculated using the following formula:
(§7) % Activity=100%×(mean RFU of test sample−mean RFU of vehicle control)/(mean MAX RFU control ligand −mean RFU of vehicle control). • 3. For positive allosteric mode assays, percentage modulation was calculated using the following formula: […]
(In general: Calcium assays in cells follow changes in intracellular calcium, usually with a dye or a luminescent sensor.)

For the next test, the target named is T2, 5-HT2B receptor (Homo sapiens, UniProt P41595).
T2 construct: host or cells: unnamed cell lines
Kind of test: Calcium mobilization assay, agonist format, 5-HT2B receptor. Type of test: cell-based. The settings on record: agonist mode, % activity relative to MAX control ligand (5-HT positive control), read-out: 5-HT2B agonist efficacy @ 1 μM. The protocol: as §1, §2, §3, §4, §5, §6, §7

T1 sequence (P28223 whole entry): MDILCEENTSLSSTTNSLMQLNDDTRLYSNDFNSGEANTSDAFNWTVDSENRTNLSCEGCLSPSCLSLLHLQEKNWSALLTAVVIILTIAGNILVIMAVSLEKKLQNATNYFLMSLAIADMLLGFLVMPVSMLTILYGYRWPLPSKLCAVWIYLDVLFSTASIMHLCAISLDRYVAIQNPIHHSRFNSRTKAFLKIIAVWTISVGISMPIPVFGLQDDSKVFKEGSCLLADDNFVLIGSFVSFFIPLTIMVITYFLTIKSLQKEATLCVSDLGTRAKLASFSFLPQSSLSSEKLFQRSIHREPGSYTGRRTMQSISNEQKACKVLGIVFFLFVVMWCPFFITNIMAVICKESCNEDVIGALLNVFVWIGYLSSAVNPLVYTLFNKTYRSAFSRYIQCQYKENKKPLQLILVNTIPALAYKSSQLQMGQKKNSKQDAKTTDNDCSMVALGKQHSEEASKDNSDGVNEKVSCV
T2 sequence (P41595 whole entry): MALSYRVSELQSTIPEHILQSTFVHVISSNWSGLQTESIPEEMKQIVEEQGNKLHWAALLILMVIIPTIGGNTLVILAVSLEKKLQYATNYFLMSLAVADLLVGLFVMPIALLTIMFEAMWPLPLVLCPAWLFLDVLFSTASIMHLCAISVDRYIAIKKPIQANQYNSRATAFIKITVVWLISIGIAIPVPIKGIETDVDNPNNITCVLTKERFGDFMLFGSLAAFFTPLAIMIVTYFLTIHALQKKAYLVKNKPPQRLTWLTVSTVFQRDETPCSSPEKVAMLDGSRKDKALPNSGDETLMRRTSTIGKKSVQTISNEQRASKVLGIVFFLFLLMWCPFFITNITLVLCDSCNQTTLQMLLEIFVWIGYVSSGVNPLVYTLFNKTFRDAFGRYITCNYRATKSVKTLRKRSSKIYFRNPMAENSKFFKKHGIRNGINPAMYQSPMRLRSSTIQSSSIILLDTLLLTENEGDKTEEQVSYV

For `CN(CCO)CCn1ccc2ccc(F)cc21` [2-[2-(6-Fluoroindol-1-yl)ethyl-methyl-amino]ethanol], the results for the activation at 1 µM at 5-HT2A receptor and on 5-HT2B receptor were 8.3% and 0.2%, respectively.
Consider `COc1ccc2c3c([nH]c2c1)CCN(C)CC3` [TBG, 8-methoxy-3-methyl-1,2,3,4,5,6-hexahydroazepino[4,5-b]indole, reference compound], for which the values for the activation at 1 µM at 5-HT2A receptor and at 5-HT2B receptor were 18.2% and -2.2%, respectively.
Turning to `OC1CCN(CCn2ccc3ccc(F)cc32)C1` (stereo not shown) [1-[2-(6-Fluoroindol-1-yl)ethyl]pyrrolidin-3-ol], the figures for the activation at 1 µM on 5-HT2A receptor and on 5-HT2B receptor were 2.5% and -2.8%, respectively.
Turning to `CC1(O)CCN(CCn2ccc3cc(F)ccc32)C1` (stereo not shown) [1-[2-(5-Fluoroindol-1-yl)ethyl]-3-methyl-pyrrolidin-3-ol], the activation at 1 µM on 5-HT2A receptor was -0.3%; at 5-HT2B receptor, -1.1%.
Consider `CN(CCO)CCn1ccc2cc(F)c(F)cc21` [2-[2-(5,6-Difluoroindol-1-yl)ethyl-methyl-amino]ethanol], for which the activation at 1 µM at 5-HT2A receptor was found to be 6.2%; on 5-HT2B receptor it was 0.1%.
Consider `CN(CCn1ccc2ccc(F)cc21)CCS(C)(=O)=O` [2-(6-Fluoroindol-1-yl)-N-methyl-N-(2-methylsulfonylethyl)ethanamine], for which the activation at 1 µM was -1.2% on 5-HT2A receptor and -1.3% at 5-HT2B receptor.
Turning to `OC1CCN(CCn2ccc3cc(F)ccc32)C1` (stereo not shown) [1-[2-(5-Fluoroindol-1-yl)ethyl]pyrrolidin-3-ol], the activation at 1 µM is -0.2% on 5-HT2A receptor and -1.2% at 5-HT2B receptor.
As for `CN(CCn1ccc2cc(F)ccc21)CCS(C)(=O)=O` [2-(5-Fluoroindol-1-yl)-N-methyl-N-(2-methylsulfonylethyl)ethanamine], the activation at 1 µM was -0.8% on 5-HT2A receptor and -2.7% on 5-HT2B receptor.
Turning to `CC1(O)CCN(CCc2c[nH]c3ccc(F)cc23)C1` (stereo not shown) [1-[2-(5-fluoro-1H-indol-3-yl)ethyl]-3-methyl-pyrrolidin-3-ol], the activation at 1 µM on 5-HT2A receptor was 7.5%; on 5-HT2B receptor, -1.5%.
For `OC1CCN(CCc2c[nH]c3ccc(F)cc23)C1` (stereo not shown) [1-[2-(5-fluoro-1H-indol-3-yl)ethyl]pyrrolidin-3-olethanamine], the activation at 1 µM is 46% at 5-HT2A receptor and -0.7% on 5-HT2B receptor.
For the compound `OC1CCN(CCn2ccc3cc(F)c(F)cc32)C1` (stereo not shown) [1-[2-(5,6-Difluoroindol-1-yl)ethyl]pyrrolidin-3-ol], the activation at 1 µM was 2% on 5-HT2A receptor and -0.7% at 5-HT2B receptor.
Regarding `CC1(O)CCN(CCc2c[nH]c3cc(F)ccc23)C1` (stereo not shown) [1-[2-(6-fluoro-1H-indol-3-yl)ethyl]-3-methyl-pyrrolidin-3-ol], the activation at 1 µM is -0.3% on 5-HT2A receptor and -1.1% on 5-HT2B receptor.
For `CC1(O)CCN(CCn2ccc3cc(F)c(F)cc32)C1` (stereo not shown) [1-[2-(5,6-Difluoroindol-1-yl)ethyl]-3-methyl-pyrrolidin-3-ol] the same measures were -0.1% and -2.5%.
Turning to `CC1(O)CCN(CCc2c[nH]c3cc(F)c(F)cc23)C1` (stereo not shown) [1-[2-(5,6-difluoro-1H-indol-3-yl)ethyl]-3-methyl-pyrrolidin-3-ol], the results for the activation at 1 µM on 5-HT2A receptor and at 5-HT2B receptor were 1.9% and -1%, respectively.
For `CN(CCO)CCc1c[nH]c2ccc(F)cc12` [2-[2-(5-Fluoro-1H-indol-3-yl)ethyl-methyl-amino]ethanol] the same measures were 47.1% and 1.2%.
For `COc1ccc2c3c([nH]c2c1)CCNCC3` [8-methoxy-1,2,3,4,5,6-hexahydroazepino[4,5-b]indole, reference compound], the activation at 1 µM is 71.7% on 5-HT2A receptor and -0.8% at 5-HT2B receptor.
For the compound `CN(CCO)CCn1ccc2cc(F)ccc21` [2-[2-(5-Fluoroindol-1-yl)ethyl-methyl-amino]ethanol], the activation at 1 µM at 5-HT2A receptor is -0.2%; on 5-HT2B receptor it was -1.4%.
Take `CC1(O)CCN(CCn2ccc3ccc(F)cc32)C1` (stereo not shown) [1-[2-(6-Fluoroindol-1-yl)ethyl]-3-methyl-pyrrolidin-3-ol]: the activation at 1 µM is 0% on 5-HT2A receptor and -1.3% at 5-HT2B receptor.
On to `CN(CCn1ccc2cc(F)c(F)cc21)CCS(C)(=O)=O` [2-(5,6-Difluoroindol-1-yl)-N-methyl-N-(2-methylsulfonylethyl)ethanamine], for which the results for the activation at 1 µM at 5-HT2A receptor and at 5-HT2B receptor were -0.5% and -1.3%, respectively.
`CN(CCc1c[nH]c2ccc(F)cc12)CCS(C)(=O)=O` [2-(5-fluoro-1H-indol-3-yl)-N-methyl-N-(2-methylsulfonylethyl)ethanamine]: the values for the activation at 1 µM on 5-HT2A receptor and at 5-HT2B receptor were 27.3% and -0.5%, respectively.

(Values after patent US20250136548A1, “FUNCTIONALIZED ALKYLAMINES” (Terran Biosciences Inc., priority 2022, published 2025).)
